Laboratory results as given in paper PMC4846432 (Science Advances, 2016).

Experiments:
mouse P-gp [1] = molecular target: T1, mouse P-gp (Mus musculus, UniProt P21447, N83Q/N87Q/N90Q); assay: Yeast chemosensitization; assay type: cell-based; details: for IYeast, inhibition in the yeast cytotoxicity assay: P-gp-expressing yeast, +10 μM DOX; for Chemosensitizing effect on P-gp-expressing yeast toward DOX (in words): cellular assay
mouse P-gp [2] = molecular target: T1, mouse P-gp; assay: biochemical
mouse P-gp [3] = molecular target: T1, mouse P-gp; details: endrin vs its stereoisomer dieldrin

T1 sequence (P21447 whole entry N83Q/N87Q/N90Q): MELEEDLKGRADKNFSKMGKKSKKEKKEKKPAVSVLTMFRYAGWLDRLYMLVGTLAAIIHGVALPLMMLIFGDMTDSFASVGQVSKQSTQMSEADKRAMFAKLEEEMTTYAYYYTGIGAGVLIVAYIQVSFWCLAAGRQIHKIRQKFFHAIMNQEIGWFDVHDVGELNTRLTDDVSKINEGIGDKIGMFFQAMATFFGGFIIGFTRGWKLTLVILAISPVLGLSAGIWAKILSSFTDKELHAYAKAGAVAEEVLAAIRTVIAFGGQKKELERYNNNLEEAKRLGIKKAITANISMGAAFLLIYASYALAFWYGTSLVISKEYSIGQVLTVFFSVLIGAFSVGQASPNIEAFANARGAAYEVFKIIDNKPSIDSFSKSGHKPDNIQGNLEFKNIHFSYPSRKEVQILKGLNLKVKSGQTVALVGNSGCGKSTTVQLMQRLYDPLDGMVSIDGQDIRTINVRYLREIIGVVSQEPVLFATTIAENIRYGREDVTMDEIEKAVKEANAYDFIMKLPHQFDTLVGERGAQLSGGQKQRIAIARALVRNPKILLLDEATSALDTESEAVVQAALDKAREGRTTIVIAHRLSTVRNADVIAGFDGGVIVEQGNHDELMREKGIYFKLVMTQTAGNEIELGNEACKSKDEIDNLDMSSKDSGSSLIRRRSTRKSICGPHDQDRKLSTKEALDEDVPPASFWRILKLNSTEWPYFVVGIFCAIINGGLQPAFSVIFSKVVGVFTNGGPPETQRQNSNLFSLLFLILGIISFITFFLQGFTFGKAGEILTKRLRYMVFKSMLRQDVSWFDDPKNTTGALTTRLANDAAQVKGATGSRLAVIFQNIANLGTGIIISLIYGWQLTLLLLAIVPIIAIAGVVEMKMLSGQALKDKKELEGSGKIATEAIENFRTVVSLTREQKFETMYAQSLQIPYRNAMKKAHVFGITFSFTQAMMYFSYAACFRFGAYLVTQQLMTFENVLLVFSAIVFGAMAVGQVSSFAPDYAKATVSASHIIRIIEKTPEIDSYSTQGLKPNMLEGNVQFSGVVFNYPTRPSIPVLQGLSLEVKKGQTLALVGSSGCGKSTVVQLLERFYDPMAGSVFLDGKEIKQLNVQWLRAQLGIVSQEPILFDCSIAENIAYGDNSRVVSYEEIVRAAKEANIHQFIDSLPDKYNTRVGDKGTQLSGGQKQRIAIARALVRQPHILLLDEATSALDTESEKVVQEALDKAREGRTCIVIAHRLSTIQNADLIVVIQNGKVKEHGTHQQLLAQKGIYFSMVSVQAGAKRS

Row | SMILES | IYeast, inhibition in the yeast cytotoxicity assay (mouse P-gp [1]) | IC50 (mouse P-gp [2]) | Chemosensitizing effect on P-gp-expressing yeast toward DOX (in words) (mouse P-gp [1]) | Potency in ATPase assay relative to dieldrin (mouse P-gp [3])
1 | ClC(Cl)=C(c1ccc(Cl)cc1)c1ccc(Cl)cc1 [4,4′-DDE, dichlorodiphenyldichloroethylene] | Y | 31.3 µM |  | 
2 | ClC1=C(Cl)C2(Cl)C3C4C=CC(C4)C3C1(Cl)C2(Cl)Cl (stereo not shown) [Aldrin] | Y | 26.2 µM |  | 
3 | CC(C)(c1ccc(O)cc1)c1ccc(O)cc1 [Bisphenol A] | N |  |  | 
4 | CCCCC(CC)COC(=O)c1ccccc1C(=O)OCC(CC)CCCC (stereo not shown) [DEHP, di(2-ethylhexyl)phthalate] | N |  |  | 
5 | ClC1=C(Cl)[C@]2(Cl)[C@@H]3[C@@H]4C[C@@H]([C@H]5O[C@@H]45)[C@@H]3[C@@]1(Cl)C2(Cl)Cl [Dieldrin] | Y | 21.8 µM | markedly lower inhibitory effect | 
6 | ClC1=C(Cl)C2(Cl)C3C4CC(C5OC45)C3C1(Cl)C2(Cl)Cl (stereo not shown) [Endrin] | Y | 1.1 µM | most pronounced chemosensitizing effect | ~20 times
7 | ClC1=C(Cl)C2(Cl)C3C(Cl)C=CC3C1(Cl)C2(Cl)Cl (stereo not shown) [Heptachlor] | N | 10.4 µM |  | 
8 | COc1ccc(C(c2ccc(OC)cc2)C(Cl)(Cl)Cl)cc1 [Methoxychlor] | N | 21.7 µM |  | 
9 | ClC1(Cl)C2(Cl)C3(Cl)C4(Cl)C(Cl)(Cl)C5(Cl)C3(Cl)C1(Cl)C5(Cl)C24Cl (stereo not shown) [Mirex] | N | 3 µM |  | 
10 | Brc1ccc(Oc2ccccc2)cc1 [PBDE-3] | N |  |  | 
11 | Brc1ccc(Oc2cc(Br)ccc2Br)c(Br)c1 [PBDE-49] | Y |  |  | 
12 | Brc1ccc(Oc2c(Br)cc(Br)cc2Br)c(Br)c1 [PBDE-100] | Y | 23.2 µM |  | 
13 | Brc1c(Br)c(Br)c(Oc2c(Br)c(Br)c(Br)c(Br)c2Br)c(Br)c1Br [PBDE-209] | N |  |  | 
14 | Clc1ccc(-c2cc(Cl)c(Cl)cc2Cl)cc1Cl [PCB-118] | N |  |  | 
15 | Clc1ccccc1-c1c(Cl)c(Cl)c(Cl)c(Cl)c1Cl [PCB-142] | Y |  |  | 
16 | Clc1cc(Cl)c(-c2c(Cl)cccc2Cl)c(Cl)c1Cl [PCB-145] | Y |  |  | 
17 | Clc1ccc(-c2c(Cl)c(Cl)cc(Cl)c2Cl)c(Cl)c1 [PCB-147] | Y |  |  | 
18 | Clc1cc(Cl)c(Cl)c(-c2c(Cl)cccc2Cl)c1Cl [PCB-152] | N |  |  | 
19 | Clc1cc(Cl)c(-c2cc(Cl)c(Cl)cc2Cl)cc1Cl [PCB-153] | N |  |  | 
20 | Clc1cc(Cl)c(-c2cc(Cl)c(Cl)cc2Cl)c(Cl)c1 [PCB-154] | N |  |  | 
21 | Clc1cc(Cl)cc(-c2c(Cl)cc(Cl)c(Cl)c2Cl)c1 [PCB-161] | N |  |  | 
22 | Clc1cc(Cl)c(-c2cc(Cl)c(Cl)c(Cl)c2)c(Cl)c1 [PCB-168] | N |  |  | 
23 | Clc1cc(-c2cc(Cl)c(Cl)c(Cl)c2)cc(Cl)c1Cl [PCB-169] | N |  |  | 
24 | Clc1cccc(Cl)c1-c1c(Cl)c(Cl)c(Cl)c(Cl)c1Cl [PCB-186] | N |  |  | 
25 | O=C(O)C(F)(F)C(F)(F)C(F)(F)C(F)(F)C(F)(F)C(F)(F)C(F)(F)F [PFOA, perfluorooctanoic acid] | N | 156 µM |  | 
26 | O=S(=O)(O)C(F)(F)C(F)(F)C(F)(F)C(F)(F)C(F)(F)C(F)(F)C(F)(F)C(F)(F)F [PFOS, perfluorooctane sulfonate] | N |  |  | 
27 | Cl[C@H]1[C@H](Cl)[C@H](Cl)[C@@H](Cl)[C@H](Cl)[C@H]1Cl [α-HCH, α-hexachlorocyclohexane] | N | 26.8 µM |  | 
28 | Cl[C@H]1[C@H](Cl)[C@@H](Cl)[C@H](Cl)[C@@H](Cl)[C@@H]1Cl [β-HCH, β-hexachlorocyclohexane] | N |  |  | 
29 | Cl[C@H]1[C@H](Cl)[C@@H](Cl)[C@@H](Cl)[C@H](Cl)[C@H]1Cl [γ-HCH (lindane), lindane] | N | 82.6 µM |  | 
